From patent US5328909A, “Cyclopropenone derivatives” (Mitsubishi Kasei Corporation, priority 1991, dated 1994)
Where a name gives a salt, the structure may show the parent alone.

These compounds were tested against T1, m-calpain (Rattus norvegicus, UniProt Q07009) (assay: Thiol protease inhibitory activity against m-calpain purified from rat brain). Details: Table 4; rat brain enzyme; read-out: Inhibitory activity against m-calpain IC50.
T1 construct: m-calpain was purified from rat brain; from tissue; host or cells: rat brain
T1 sequence (Q07009 20-700 limits assumed): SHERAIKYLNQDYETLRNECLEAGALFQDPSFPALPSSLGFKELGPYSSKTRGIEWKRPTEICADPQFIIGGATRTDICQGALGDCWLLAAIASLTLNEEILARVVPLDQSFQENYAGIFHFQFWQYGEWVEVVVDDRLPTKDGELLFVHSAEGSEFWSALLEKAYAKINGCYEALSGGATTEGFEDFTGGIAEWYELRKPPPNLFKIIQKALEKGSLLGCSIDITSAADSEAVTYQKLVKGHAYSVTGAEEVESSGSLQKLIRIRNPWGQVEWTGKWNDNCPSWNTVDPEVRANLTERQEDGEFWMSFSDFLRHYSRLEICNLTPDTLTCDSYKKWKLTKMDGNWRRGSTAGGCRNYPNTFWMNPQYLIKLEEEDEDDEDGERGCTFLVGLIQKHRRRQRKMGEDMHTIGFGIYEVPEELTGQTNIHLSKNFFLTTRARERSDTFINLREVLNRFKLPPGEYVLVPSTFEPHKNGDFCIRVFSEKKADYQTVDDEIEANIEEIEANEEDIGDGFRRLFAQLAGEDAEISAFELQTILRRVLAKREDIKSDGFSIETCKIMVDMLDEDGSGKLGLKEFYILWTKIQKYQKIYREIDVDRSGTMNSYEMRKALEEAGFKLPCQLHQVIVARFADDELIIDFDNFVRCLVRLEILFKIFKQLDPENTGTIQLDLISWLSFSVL
T1 sequence (Q64537 1-270 partner): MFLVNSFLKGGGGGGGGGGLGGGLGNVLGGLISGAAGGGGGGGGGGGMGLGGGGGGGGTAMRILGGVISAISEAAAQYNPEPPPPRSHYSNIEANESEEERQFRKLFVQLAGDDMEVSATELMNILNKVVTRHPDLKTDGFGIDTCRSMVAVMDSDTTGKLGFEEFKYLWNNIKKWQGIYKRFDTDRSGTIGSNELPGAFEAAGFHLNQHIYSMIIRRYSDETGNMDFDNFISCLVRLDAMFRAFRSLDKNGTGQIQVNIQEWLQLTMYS
Format: biochemical
Experimental: Inhibitory activity against papain (P-3125, Sigma) and cathepsin B (C-6286, Sigma) was assayed according to the method described in a literature [Biochemical Journal, 201, 189 (1982)]. Capthesin L was purified from rat kidney according to the method in a literature [Journal of Biochemistry, 100, 35 (1986)], and the inhibitory activity against it was assayed in the same manner as described in the above literature for cathepsin B. Further, m-calpain was purified from rat brain according to a known method [Journal of Biological Chemistry, 254, p.3210 (1984)] and the inhibitory activity against it was assayed by a method described in a literature [Journal of Biological Chemistry, 259, 12489 (1984)]. The results are showing in Tables 3 and 4. It is evident from Tables 3 and 4 that the compounds in the present invention have a potent inhibitory activity against thiol proteases such as papain, cathepsin B, cathepsin L, m-calpain or the like.

| IC50 [nM] | Structure (SMILES) |
| --- | --- |
| 3300 | CC(C)C[C@H](NC(=O)NCc1ccccc1)C(=O)N[C@@H](C(C)C)[C@@H](O)c1c(-c2ccccc2)c1=O [75 (No. 225), 2-[(1S, 2S)-2-{(S)-2-(3-benzylureido)-4-methylvalerylamino}-1-hydroxy-3-methylbutyl]-3-phenylcyclopropenone] |
| 840 | CC(C)C[C@H](NS(=O)(=O)c1ccc(Cl)cc1)C(=O)N[C@@H](C(C)C)[C@@H](O)c1c(-c2ccccc2)c1=O [85 (No. 248), 2-[(1S, 2S)-2-{(S)-2-(4-chlorophenylsulfonylamino)-4-methylvalerylamino}-1hydroxy-3-methylbutyl]-3-phenylcyclopropenone] |
| 1900 | CC(C)C[C@H](NC(=O)CCC1CCCCC1)C(=O)N[C@@H](C(C)C)[C@@H](O)c1c(-c2ccccc2)c1=O [39 (No. 124), 2-[(1S, 2S)-2-{(S)-2-(3-cyclohexylpropionylamino)-4-methylvalerylamino} -1-hydroxy-3-methylbutyl]-3-phenylcyclopropenone] |
| 1100 | CC(C)C[C@H](NC(=O)COCc1ccccc1)C(=O)N[C@@H](C(C)C)[C@@H](O)c1c(-c2ccccc2)c1=O [54 (No. 166), 2-[(1S, 2S)-2-((S)-2-benzyloxyacetylamino-4-methylvalerylamino)-1-hydroxy-3-methylbutyl]-3-phenylcyclopropenone] |
| 1900 | CC(C)C[C@H](NS(=O)(=O)c1cccc2cccnc12)C(=O)N[C@@H](C(C)C)[C@@H](O)c1c(-c2ccccc2)c1=O [91 (No. 265), 2-[(1S, 2S)-1-hydroxy-3-methyl-2-{(S)-4-methyl-2-(8-quinolylsulfonylamino)valerylamino}butyl]-3-phenylcyclopropenone] |
| 1500 | CC(C)C[C@H](NC(=O)OCC1CCCCC1)C(=O)N[C@@H](C(C)C)[C@@H](O)c1c(-c2ccc(F)cc2)c1=O [105 (No. 311), 2-[(1S, 2S)-2-((S)-2-cyclohexylmethoxycarbonylamino-4-methylvalerylamino)-1-hydroxy-3-methylbutyl]-3-(4-fluorophenyl)cyclopropenone] |
| 1300 | CC(C)C[C@H](NC(=O)c1cccnc1)C(=O)N[C@@H](C(C)C)[C@@H](O)c1c(-c2ccccc2)c1=O [71 (No. 209), 2-[(1S, 2S)-1-hydroxy-3-methyl-2-((S)-4-methyl-2-nicotinoylaminovalerylamino)butyl]-3-phenylcyclopropenone] |
| 1100 | CC(C)C[C@H](NC(=O)c1ccccc1Cl)C(=O)N[C@@H](C(C)C)[C@@H](O)c1c(-c2ccccc2)c1=O [60 (No. 178), 2-[(1S, 2S)-2-{(S)-2-(2-chlorobenzoylamino)-4-methylvalerylamino}-hydroxy-3-methylbutyl]-3-phenylcyclopropenone] |
| 4300 | CC(C)C[C@H](NS(=O)(=O)c1ccccc1)C(=O)N[C@@H](C(C)C)[C@H](O)c1c(-c2ccccc2)c1=O [81 (No. 239), 2-[(1R, 2S)-1-hydroxy-3-methyl-2-((S)-4-methyl-2-phenylsulfonylaminovalerylamino)butyl]-3-phenylcyclopropenone] |
| 850 | CC(C)C[C@H](NS(=O)(=O)c1ccccc1Cl)C(=O)N[C@@H](C(C)C)[C@@H](O)c1c(-c2ccccc2)c1=O [84 (No. 246), 2-[(1S, 2S)-2-{(S)-2-(2-chlorophenylsulfonylamino)-4-methylvalerylamino}-1-hydroxy-3-methylbutyl]-3-phenylcyclopropenone] |
| 800 | CC(C)C[C@H](NC(=O)c1ccc2ccccc2n1)C(=O)N[C@@H](C(C)C)[C@@H](O)c1c(-c2ccccc2)c1=O [74 (No. 219), 2-[(1S, 2S)-1-hydroxy-3-methyl-2-{(S)-4-methyl-2-(2-quinolylcarbonylamino)valerylamino}butyl-3-phenylcyclopropenone hydrochloride] |
| 4000 | CCCCCCCCCCCC(=O)N[C@@H](CC(C)C)C(=O)N[C@@H](C(C)C)[C@@H](O)c1c(-c2ccccc2)c1=O [38 (No. 120), 2-[(1S, 2S)-1-hydroxy-2-((S)-2-lauroylamino-4-methylvalerylamino)^- 3-methylbutyl]-3-phenylcyclopropenone] |
